Test results: patent US20100256243A1, “Dosing Regimen for the Treatment of Alzheimer's Disease With Sulfonyl Fluorides” (priority 2009, published 2010)
Changes are numbered by the printed parent chain. Where “and” joins values, the source holds several entries; their conditions need not be identical. Equal values may be shown once. Entries after “also recorded” stand apart in the source; their conditions may differ.

Assays:
rats [1] = details: daily doses (Palacios-Esquivel et al., 1993); cited from earlier work
brain AChE [2] = details: oral MSF 0.5 mg/kg daily, after 5 days of administration; cited from earlier work
[3] = biological target: T1, brain acetylcholinesterase (Rattus norvegicus, UniProt P37136); details: cited from earlier work
T1 construct: host or cells: rodent brain, dosed in vivo
T1 sequence (P37136 32-614): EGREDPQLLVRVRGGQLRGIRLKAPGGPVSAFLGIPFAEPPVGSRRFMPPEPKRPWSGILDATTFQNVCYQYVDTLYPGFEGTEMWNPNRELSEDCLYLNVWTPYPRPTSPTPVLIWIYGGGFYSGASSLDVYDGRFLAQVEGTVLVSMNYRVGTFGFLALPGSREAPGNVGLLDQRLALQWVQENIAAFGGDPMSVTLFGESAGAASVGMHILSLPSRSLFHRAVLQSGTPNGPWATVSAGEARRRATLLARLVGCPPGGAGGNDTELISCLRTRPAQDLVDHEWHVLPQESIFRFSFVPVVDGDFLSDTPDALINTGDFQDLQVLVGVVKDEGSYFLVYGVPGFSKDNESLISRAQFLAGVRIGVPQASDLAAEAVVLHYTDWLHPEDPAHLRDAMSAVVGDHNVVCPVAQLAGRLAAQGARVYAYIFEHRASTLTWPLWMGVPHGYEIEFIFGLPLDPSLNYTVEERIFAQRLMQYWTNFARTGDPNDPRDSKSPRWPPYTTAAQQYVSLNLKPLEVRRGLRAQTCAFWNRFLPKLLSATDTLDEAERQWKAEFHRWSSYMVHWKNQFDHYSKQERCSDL

brain AChE [4] = biological target: T2, brain AChE (Rattus norvegicus, UniProt P37136); details: ex vivo, rats, without toxicity (Moss et al., 1985); cited from earlier work
T2 construct: host or cells: rat brain, ex vivo
T2 sequence (P37136 32-614): T1 sequence (P37136 32-614)

[5] = test system: enzyme in the periphery (cholinesterase); details: rodents, administered daily at low doses (Moss et al., 1988); cited from earlier work
brain AChE [6] = biological target: T3, brain AChE (Mus musculus, UniProt P21836); details: ex vivo, mice, without toxicity (Kobayashi et al., 1999); cited from earlier work
T3 construct: host or cells: mouse brain, ex vivo
T3 sequence (P21836 32-614): T1 sequence (P37136 32-614) with I59V, T109A, S128A, T144A, S271A, D313E, A392T, V467T, Q478K, R499Q

[7] = test system: septal choline acetyltransferase; details: cerebrally ischemic animals, versus vehicle-treated animals (U.S. Patent Publication 2003/0087959); cited from earlier work
human cortex AChE = biological target: T4, human cortex AChE (Homo sapiens, UniProt P22303); details: in vitro (Pacheco et al., 1995); cited from earlier work
T4 construct: host or cells: human cortex, in vitro

[8] = test system: patients with senile dementia of Alzheimer type; details: patients with senile dementia of Alzheimer type (U.S. Pat. No. 5,798,392); cited from earlier work
rats [9] = details: daily doses (Borlongan et al., 2005); cited from earlier work
rats [10] = test: Daily dosing with 1.0 mg/kg MSF/peanut oil in rats (clinical signs of distress and/or death); type: in vivo
[11] = test system: cerebrally ischemic animals; details: compared to untreated controls (U.S. Patent Publication 2003/0087959); cited from earlier work
[12] = test system: brain acetylcholinesterase; details: cited from earlier work
animals = test: Acute oral toxicity (LD50) of MSF in animals; type: in vivo, rats
Procedure: The acute oral LD50, as indicated by the data, was determined to be greater than 3 mg/kg but less than 4 mg/kg.

aged rats = details: daily doses (Malin et al., 1993); cited from earlier work
rats [13] = test: Alternating day dosing with 2.0 mg/kg MSF/peanut oil in rats (death); type: in vivo; details: 2 mg/kg every other day; for Number Alive/Numbered Treated / lethality: oral
Procedure: To confirm the “pulsing” theory for MSF administration, the inventor continued the experiment described above and extended MSF treatment to double the total lethal dose observed in Example 1 (from 4 mg/kg to 8 mg/kg). Rats in were treated at 2 mg/kg/every other day for 2 more round (total of 8 mg/kg in 8 days).

[14] = biological target: T5, acetylcholinesterase in the brain (Rattus norvegicus, UniProt P37136); details: cerebrally ischemic animals (U.S. Patent Publication 2003/0087959); cited from earlier work
T5 construct: host or cells: brain of cerebrally ischemic animals, dosed in vivo
T5 sequence (P37136 32-614): T1 sequence (P37136 32-614)

[15] = relatively small doses over a long period of time (Moss et al., 1988; 1985)

T4 sequence (P22303 32-614): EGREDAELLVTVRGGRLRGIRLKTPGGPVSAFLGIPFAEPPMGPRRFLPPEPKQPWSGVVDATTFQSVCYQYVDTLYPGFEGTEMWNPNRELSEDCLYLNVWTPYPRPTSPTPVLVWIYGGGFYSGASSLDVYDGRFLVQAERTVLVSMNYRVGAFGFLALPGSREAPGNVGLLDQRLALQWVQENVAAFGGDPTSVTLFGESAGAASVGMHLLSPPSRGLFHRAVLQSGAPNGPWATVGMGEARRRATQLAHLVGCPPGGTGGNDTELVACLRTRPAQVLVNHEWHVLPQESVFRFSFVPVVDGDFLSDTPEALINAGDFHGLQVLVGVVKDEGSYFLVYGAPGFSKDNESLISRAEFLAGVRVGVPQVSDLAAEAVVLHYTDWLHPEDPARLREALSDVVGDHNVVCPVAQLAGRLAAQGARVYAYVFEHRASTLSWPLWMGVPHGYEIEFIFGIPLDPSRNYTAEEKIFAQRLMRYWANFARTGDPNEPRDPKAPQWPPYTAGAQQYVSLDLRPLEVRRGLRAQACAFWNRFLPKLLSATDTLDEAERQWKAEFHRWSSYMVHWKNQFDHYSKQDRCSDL

CS(=O)(=O)F [MSF, methanesulfonyl fluoride]
reversing scopolamine-induced amnesia (rats [1]): highly effective | inhibition in the brain (brain AChE [2]): 90% | inhibition of rodent brain acetylcholinesterase [3, 15]: 80-90% | inhibition of brain cholinesterase (average) ([3]; rodents, administered daily at low doses (Moss et al., 1988)): 90% | inhibition of brain AChE (brain AChE [4]): up to 80% | inhibition of enzyme in the periphery [5]: less than 30% | inhibition of brain AChE (brain AChE [6]): up to 80% | septal choline acetyltransferase immunoreactivity [7]: more intense septal choline acetyltransferase immunoreactivity | selectivity for inhibition of human cortex AChE compared to butyrylcholinesterase (human cortex AChE): highly selective | cognitive performance in patients [8]: improvement in cognitive performance | reversing ischemia-induced cognitive deficits (rats [9]): highly effective | clinical signs of distress and/or death (rats [10]; oral gavage, 1.0 mg/kg daily, MSF/peanut oil 1.0 mg/ml, 1 mg/kg): high toxicity and animal deaths | Number Alive/Numbered Treated (rats [10]; oral, 1 mg/kg daily, 4 days): 0/7 (4 males + 3 female) | cognitive performance [11]: improved cognitive performance | inhibition of brain AChE ([12]; ex vivo, monkey cortex, without toxicity (Moss et al., 1988)): up to 80% | inhibition of monkey brain acetylcholinesterase [12, 15]: 80-90% | Number Dead/Number Treated, Combination (animals; 1 mg/kg (0.4 mg/mL)): 0/10 | Number Dead/Number Treated, Females (animals; 1 mg/kg (0.4 mg/mL)): 0/5 | Number Dead/Number Treated, Males (animals; 1 mg/kg (0.4 mg/mL)): 0/5 | Number Dead/Number Treated, Combination (animals; 2 mg/kg (0.8 mg/mL)): 0/10 | Number Dead/Number Treated, Females (animals; 2 mg/kg (0.8 mg/mL)): 0/5 | Number Dead/Number Treated, Males (animals; 2 mg/kg (0.8 mg/mL)): 0/5 | Number Dead/Number Treated, Combination (animals; 3 mg/kg (1.2 mg/mL)): 1/10 | Number Dead/Number Treated, Females (animals; 3 mg/kg (1.2 mg/mL)): 1/5 | Number Dead/Number Treated, Males (animals; 3 mg/kg (1.2 mg/mL)): 0/5 | Number Dead/Number Treated, Combination (animals; 4 mg/kg (1.6 mg/mL)): 10/10 | Number Dead/Number Treated, Females (animals; 4 mg/kg (1.6 mg/mL)): 5/5 | Number Dead/Number Treated, Males (animals; 4 mg/kg (1.6 mg/mL)): 5/5 | reversing normal age-related memory impairment (aged rats): highly effective | animals survived (rats [13]; total of 8 mg/kg in 8 days): 83.3% | Number Alive/Numbered Treated (rats [13]; 4 days (total 4 mg/kg)): 6/6 (3 males + 3 female) | lethality (rats [13]; 4 days (total 4 mg/kg)): no lethal event; also recorded: By Day 4, all rats were alive and it was decided to continue the treatment | Number Alive/Numbered Treated (rats [13]; 8 days (total 8 mg/kg)): 5/6 (3 males + 3 female) and 5/6 | lethality (rats [13]; 8 days (total 8 mg/kg), follow-up over two weeks): 1 animal was found dead | inhibition of acetylcholinesterase in the brain [14]: about 90%
